Data reported in US12263248B2, “Compounds and compositions for intracellular delivery of therapeutic agents” (ModernaTX, Inc., priority 2018, dated 2025).

Assays:
luciferase (Luc) mRNA [1] = test: Luc expression (total flux) after intramuscular administration; format: in vivo, mice; settings: Table 5B; 6 hours after intramuscular administration, 0.01 mpk
In short: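 Mice given a single intramuscular dose of lipid nanoparticle formulations carrying modified Luc mRNA, alone or with H10 mRNA, at 0.001 or 0.01 mpk total. Luciferase expression recorded as total flux.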

[2] = Apparent (surface) pKa of the LNP formulation (TNS assay); format: physicochemical; settings: for pKa: Table 1A
In short: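 LNP (0.04 mg/mL mRNA) mixed with TNS reagent in 21 buffers spanning about pH 3-12, in triplicate; fluorescence plotted against pH as sigmoidal curve. Apparent pKa taken as […] curve inflection point; validated in 1× PBS and 20 mM Tris w/8% sucrose.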

[3] = Encapsulation efficiency of RNA (QUANT-IT RIBOGREEN RNA assay); format: physicochemical; settings: for EE (%): Table 1A
In short: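 RiboGreen fluorescence (ex ~480, em ~520 nm) compared between intact samples and Triton X-100-lysed samples after 15 min at 37 °C in TE buffer, pH 7.5. Percent free RNA is the blank-corrected intact/disrupted ratio.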

[4] = Particle size and polydispersity index of nanoparticle compositions (Zetasizer Nano ZS); format: physicochemical
In short: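 In 1×PBS, the compositions were sized on a Zetasizer Nano ZS, which also reported their polydispersity index.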

luciferase (Luc) mRNA [5] = test: Luc expression in liver, lung, spleen and femur 6 hours after intravenous administration; format: in vivo; settings: mice, 0.5 mpk; for Total Flux Liver / Total Flux Lung / Total Flux Spleen: intravenous
In short: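 LNP-formulated mRNA given IV to mice (n=3) at 0.5 mpk; at 6 h, bioluminescence imaged ex vivo 15 min after IP D-luciferin (15 mg/mL, 200 μL), organs imaged within 25 min. Values are total flux by region of interest.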

luciferase (Luc) mRNA [6] = test: Luc expression, whole body bioluminescence after intravenous administration to mice; format: in vivo; settings: for Total Flux 3 hours / Total Flux 6 hours / Total Flux 24 hours: mice, i.v., 0.5 mg/kg, Luc mRNA; for Lipid/MC3 AUC / AUC (p/s * h): Table 3D; for Lipid/MC3 AUC / AUC (p/s * h) / 6 h BLI Lipid/MC3: intravenous; for AUC (p/s * h): Luc; for 6 h BLI Lipid/MC3: Table 3E
In short: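 Luc mRNA nanoparticle formulations given intravenously to mice (n=6) at 0.5 mg/kg; whole-body bioluminescence imaged at 3, 6 and 24 h. CD-1 mice received IP D-luciferin (200 μL of 15 mg/mL) 15 min before imaging; total flux quantified by region of interest.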

luciferase mRNA = test: Luciferase expression after subcutaneous administration to mice; format: in vivo, female CD-1 mice; settings: 0.5 mpk, relative to MC3
Description: The effect of the lipids of the disclosure on protein expression upon subcutaneous administration was studied. Formulations containing lipids of the disclosure and an mRNA expressing luciferase or hEPO were administered subcutaneously to female CD-1 mice at 0.5 mpk. Expression levels were obtained via whole body luminescent imaging (BLI) at 3, 6 and 24 hours after injection and expression levels in liver, spleen and at the injection site were evaluated ex vivo after 24 hours. […] See also Tables 35 and 36, and FIGS. 19 and 27.
Table 35 summarizes the luciferase expression levels using various nanoparticle compositions of the disclosure, and the luciferase expression levels using various nanoparticle compositions of the disclosure as compared to the luciferase expression level using an MC3 formulation after subcutaneous administration, as described above.

[7] = Lipid clearance: lipid level in mouse liver tissue (LC-MS/MS); format: in vivo; settings: for % Dose Remaining in Liver 6 h: Table 3D, intravenous; for % Remaining dose at 6 h / % Remaining dose at 24 h: Table 3E, mouse liver
[8] = Table 1E, compositions for subcutaneous administration
[9] = Table 1A, lipid:DSPC:cholesterol:PEG-DMG 50:10:38.5:1.5 mol %
[10] = second column (head also says 6 h)

| pKa [2] | EE (%) [3] [%] | PDI ([4]; Table 1A) | Size (nm) [4, 9] [nm] | % Remaining dose at 6 h [7] [%] | % Remaining dose at 24 h [7] [%] | SMILES | Total Flux Liver (luciferase (Luc) mRNA [5]) | Total Flux Lung (luciferase (Luc) mRNA [5]) | Total Flux Spleen (luciferase (Luc) mRNA [5]) | Total Flux 3 hours (luciferase (Luc) mRNA [6]) | Total Flux 6 hours (luciferase (Luc) mRNA [6]) | Total Flux 24 hours (luciferase (Luc) mRNA [6]) | 6 h BLI Lipid/MC3 (luciferase (Luc) mRNA [6]) | further results |
| --- | --- | --- | --- | --- | --- | --- | --- | --- | --- | --- | --- | --- | --- | --- |
| 6.92 | 98.4 | 0.13 | 77.2 |  |  | CCCCCCCCCOC(=O)CCCCCCCN(CCCCCCCC(=O)OC(CCCCCCCC)CCCCCCCC)CC(O)CO (stereo not shown) [Compound 69, Heptadecan-9-yl 8-((2,3-dihydroxypropyl)(8-(nonyloxy)-8-oxooctyl)amino)octanoate] | 2.24E+08 | 7.34E+05 | 2.54E+06 | 3.38E+09 | 7.95E+09 | 1.15E+08 |  | Total flux (p/s) 0.01 mpk Dose (luciferase (Luc) mRNA [1]): 8.83E+06 p/s; App. pKa ([2]; Table 3F): 6.95; % EE [3, 8]: 99%; PDI [4, 8]: 0.09; Size (nm) [4, 8]: 71.8 nm; Novel lipid/MC3 expression ratio, 6 hr. time point, s.c. Luc 0.5 mpk (luciferase mRNA): 0.14 |
| 6.646 | 25.49 | 0.200 | 192.7 |  |  | CCCCCCCCC(CCCCCCCC)OC(=O)CCCCCCCN(CCO)CCCCCCCC(=O)OCC(CCCCCCC)OC (stereo not shown) [Compound 148, Heptadecan-9-yl 8-((2-hydroxyethyl)(8-((2-methoxynonyl)oxy)-8-oxooctyl)amino)octanoate] | 4.39E+09 | 3.27E+07 | 2.71E+09 | 6.28E+10 | 3.71E+10 | 1.43E+09 |  | Flux in the spleen (luciferase (Luc) mRNA [5]; i.v., in words): highest; % Dose Remaining in Liver 6 h [7, 10]: <1%; % Dose Remaining in Liver 6 h [7]: <1%; Lipid/MC3 AUC (luciferase (Luc) mRNA [6]): 2.6; AUC (p/s * h) (luciferase (Luc) mRNA [6]): 4.965E+011 p/s * h |
| 6.101 | 96.72 | 0.082 | 63.1 |  |  | CCCCCCCCC(CCCCCCCC)OC(=O)CCCCCCCN(C)CCCCCCCCCCCC(=O)OCCCCC [Compound 150, Pentyl 12-((8-(heptadecan-9-yloxy)-8-oxooctyl)(methyl)amino)dodecanoate] | 1.54E+09 | 2.20E+06 | 3.43E+07 | 1.66E+10 | 2.31E+10 | 3.86E+08 |  | % Dose Remaining in Liver 6 h [7, 10]: <1%; % Dose Remaining in Liver 6 h [7]: <1%; Lipid/MC3 AUC (luciferase (Luc) mRNA [6]): 1.4; AUC (p/s * h) (luciferase (Luc) mRNA [6]): 2.704E+011 p/s * h |
| 6.580 | 98.39 | 0.150 | 83.7 |  |  | CCCCCCCCCOC(=O)CCCCCCCN(CCO)CCCCCCCCCC(CCCCCCCC)CCCCCCCC [Compound 153, Nonyl 8-((2-hydroxyethyl)(10-octyloctadecyl)amino)octanoate] | 1.18E+09 | 6.42E+06 | 1.42E+08 | 1.69E+10 | 2.28E+10 | 5.10E+08 |  | % Dose Remaining in Liver 6 h [7, 10]: <1%; % Dose Remaining in Liver 6 h [7]: <1%; Lipid/MC3 AUC (luciferase (Luc) mRNA [6]): 1.4; AUC (p/s * h) (luciferase (Luc) mRNA [6]): 2.697E+011 p/s * h |
| 6.54 | 94.0 | 0.15 | 89.0 | 0.056 | 0 | CCCCCCCCCOC(=O)CCCCCCCN(CCO)CCCCCCCC(=O)OC(CCC1CC1CCCC)CCC1CC1CCCC (stereo not shown) [Compound 160, 1,5-Bis(2-butylcyclopropyl)pentan-3-yl 8-((2-hydroxyethyl)(8-(nonyloxy)-8-oxooctyl)amino)octanoate] |  |  |  |  |  |  | 0.29 |  |
| 6.08 | 94.3 | 0.09 | 67.6 | 0.203 | 0 | CCCCCCCCC(CCCCCCCC)OC(=O)CCCCCCCN(CCO)C(C)CCCCCCCCOC(=O)CCCCCCC (stereo not shown) [Compound 161, Heptadecan-9-yl 8-((2-hydroxyethyl)(10-(octanoyloxy)decan-2-yl)amino)octanoate] |  |  |  |  |  |  | 0.12 |  |
| 6.08 | 94.1 | 0.14 | 72.7 | 0.283 | 0 | CCCCCCCCC(CCCCCCCC)C(=O)OCCCCCCCN(CCO)C(C)CCCCCCCCOC(=O)CCCCCCC (stereo not shown) [Compound 162, 7-((2-Hydroxyethyl)(10-(octanoyloxy)decan-2-yl)amino)heptyl 2-octyldecanoate] |  |  |  |  |  |  | 0.28 |  |
| 6.48 | 85.0 | 0.14 | 100.5 | 51.0 | 35.5 | CCCCCCCCCC(C)(O)CCCCCCCCN(CCO)CCCCCCCC(=O)OC(CCCCCCCC)CCCCCCCC (stereo not shown) [Compound 171, Heptadecan-9-yl 8-((9-hydroxy-9-methyloctadecyl)(2-hydroxyethyl)amino)octanoate] |  |  |  |  |  |  | 2.26 |  |
| 6.40 | 95.4 | 0.13 | 77.3 | 17.4 | 3.24 | CCCCCCCCC(CCCCCCCC)OC(=O)CCCCCCCN(CCO)CCCCCCCC(=O)O[C@H](C)CCCCCCCC [Compound 172, (R)-Decan-2-yl 8-((8-(heptadecan-9-yloxy)-8-oxooctyl)(2-hydroxyethyl)amino)octanoate] |  |  |  |  |  |  | 1.72 |  |
| 6.54 | 32.3 | 0.24 | 245.3 | 0.076 | 0 | CCCCCCCCCOC(=O)CCCCCCCN(CCO)CCCCCCCC(=O)OC(COCCCCCC)COCCCCCC [Compound 183, 1,3-Bis(hexyloxy)propan-2-yl 8-((2-hydroxyethyl)(8-(nonyloxy)-8-oxooctyl)amino)octanoate] |  |  |  |  |  |  | 0.031 |  |
| 6.77 | 98.3 | 0.14 | 69.6 | 33.8 | 29.3 | CCCCCCCCCCCOC(=O)CCCCCN(CCO)CCCCCC(=O)OC(CCCCCCCCCC)CCCCCCCCCC [Compound 185, Henicosan-11-yl 6-((2-hydroxyethyl)(6-oxo-6-(undecyloxy)hexyl)amino)hexanoate] |  |  |  |  |  |  | 0.87 |  |
| 6.33 | 87.2 | 0.17 | 92.2 | 0.051 | 0 | CCCCCCCOC(=O)CCCCCCCCCN(CCO)CCCCCCCCCC(=O)OC(CCCCCC)CCCCCC [Compound 186, Heptyl 10-((2-hydroxyethyl)(10-oxo-10-(tridecan-7-yloxy)decyl)amino)decanoate] |  |  |  |  |  |  | 1.13 |  |
